Assay results reported in patent US6472348B1, “Pyridone derivatives and herbicides” (Kumiai Chemical Industry Co., Ltd., priority 1996, dated 2002).

Experiments:
Type in all cases: in vivo
rice flatsedge (Ci) = test: Test Example 3: herbicidal effects by upland field foliage treatment; parameters: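 grade of growth control; 5 = at least 90%; 4 = 70 to 90%; 3 = 50 to 70%; 2 = 30 to 50%; 1 = 10 to 30%; 0 = under 10%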
Procedure, shortened: (§1)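 Scores reflect herbicidal effect graded by standards on the 14th day after foliage treatment of weeds grown 2 weeks in a greenhouse.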

Diaitaria ciliaris (Di) = test: as above; parameters: scale not given here
Procedure, shortened: as §1

barnyardgrass (Ec) [1] = test: as above; parameters: scale not given here
Procedure, shortened: as §1

pale smartweed (Po) = test: as above; parameters: scale not given here
Procedure, shortened: as §1

[2] = test system: common lambsquarters (Ch); test: as above; parameters: scale not given here
Procedure, shortened: as §1

slender amaranth (Am) = test: as above; parameters: scale not given here
Procedure, shortened: as §1

soybean (Gl) = test: Test Example 6: crop plant selectivity by upland field soil treatment (soybean), phytotoxicity; parameters: scale not given here; conditions: 21st day after application
Procedure, shortened: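 Pre-emergence soil treatment; sand-filled pots, seeds sown then soil-covered; greenhouse culture; visual rating of weed control and soybean injury on day 21 post-application per standard scale.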

bulrush (Sc) = test: Test Example 1: herbicidal effects by paddy field soil treatment; conditions: 100 g of the active ingredient per 10 ares, 21st day after the application, index 0-5 of Table 47;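 note: grade of growth control; 5 = at least 90%; 4 = 70 to 90%; 3 = 50 to 70%; 2 = 30 to 50%; 1 = 10 to 30%; 0 = under 10%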
Procedure, shortened: (§2)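 Flooded paddy-soil pots (3 cm water) sown after puddling/leveling; treatment 100 g a.i./10 ares; greenhouse culture; herbicidal effect rated visually on a scoring scale at 21 d post-application.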

barnyardgrass (Ec) [3] = test: as above; conditions: 100 g of the active ingredient per 10 ares, 21st day after the application, index 0-5 of Table 47
Procedure, shortened: as §2

monochoria (Mo) = test: as above; conditions: 100 g of the active ingredient per 10 ares, 21st day after the application, index 0-5 of Table 47;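 note: grade of growth control; 5 = at least 90%; 4 = 70 to 90%; 3 = 50 to 70%; 2 = 30 to 50%; 1 = 10 to 30%; 0 = under 10%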
Procedure, shortened: as §2

wheat (Tr) = test: Test Example 5: crop plant selectivity by upland field soil treatment (wheat), phytotoxicity; parameters: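 grade of crop injury; 5 = at least 90%; 4 = 70 to 90%; 3 = 50 to 70%; 2 = 30 to 50%; 1 = 10 to 30%; 0 = under 10%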; conditions: 21st day after application
Procedure, shortened: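 Upland soil treatment test: crop and weed species sown in sand-filled pots and covered with soil before compound application. Visual scoring of weed control and wheat injury 21 days post-application, plants kept in a greenhouse, using a standard rating scale.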

[4] = 100 g of the active ingredient per 10 ares, evaluated on the 14th day after treatment
[5] = 100 g active ingredient per 10 ares, evaluated 14th day after treatment

SMILES | Herbicidal effects Ci (rice flatsedge (Ci); [4]) | Herbicidal effects Di (Diaitaria ciliaris (Di); [4]) | Herbicidal effects Ec (barnyardgrass (Ec) [1]; [4]) | Herbicidal effects Po (pale smartweed (Po); [4]) | Herbicidal effects Ch [2, 4] | Herbicidal effects Am (slender amaranth (Am); [4]) | Phytotoxicity Gl (soybean (Gl); dose 6.3 g ai/10a) | Herbicidal effects Sc (bulrush (Sc)) | Herbicidal effects Ec (barnyardgrass (Ec) [3]) | Herbicidal effects Mo (monochoria (Mo)) | Phytotoxicity Tr (wheat (Tr); dose 6.3 g ai/10a) | Herbicidal effects Ci (rice flatsedge (Ci); [5]) | Herbicidal effects Di (Diaitaria ciliaris (Di); [5]) | Herbicidal effects Ec (barnyardgrass (Ec) [1]; [5]) | Herbicidal effects Po (pale smartweed (Po); [5]) | Herbicidal effects Ch [2, 5] | Herbicidal effects Am (slender amaranth (Am); [5]) | Phytotoxicity Gl (soybean (Gl); dose 1.6 g ai/10a) | Phytotoxicity Tr (wheat (Tr); dose 1.6 g ai/10a)
Cn1c(C(F)(F)F)ccc(-c2cc(OCC3CC3)c(Cl)cc2F)c1=O [1-160] | 5 | 5 | 5 | 5 | 5 | 5 | 1 | 5 | 5 | 5 | 2 | – | – | – | – | – | – | – | –
Cn1c(C(F)(F)F)ccc(-c2cc(OCCCl)c(Cl)cc2F)c1=O [1-171] | 5 | 5 | 5 | 5 | 5 | 5 | 1 | 5 | 5 | 5 | 1 | – | – | – | – | – | – | – | –
CCOCOc1cc(-c2ccc(C(F)(F)F)n(C)c2=O)c(F)cc1Cl [1-181] | 5 | 5 | 5 | 5 | 5 | 5 | 1 | 5 | 5 | 5 | 1 | – | – | – | – | – | – | – | –
C#CC(C)Oc1cc(Cl)cc(F)c1-c1ccc(C(F)(F)F)n(C)c1=O (centres unmarked) [1′-5] | – | – | – | – | – | – | 2 | 5 | 5 | 5 | 1 | 5 | 5 | 5 | 5 | 5 | 5 | 1 | 1
C=CC(C)Oc1cc(-c2ccc(C(F)(F)F)n(C)c2=O)c(F)cc1Cl (centres unmarked) [Compound 1-182] | 5 | 5 | 5 | 5 | 5 | 5 | 1 | 5 | 5 | 5 | 1 | – | – | – | – | – | – | – | –
CCON=Cc1cc(-c2ccc(C(F)(F)F)n(C)c2=O)c(F)cc1Cl [Compound 1-187] | – | – | – | – | – | – | 1 | 5 | 5 | 5 | 1 | 5 | 5 | 5 | 5 | 5 | 5 | – | –
CCOC(=O)CON=Cc1cc(-c2ccc(C(F)(F)F)n(C)c2=O)c(F)cc1Cl [Compound 1-191] | – | – | – | – | – | – | 2 | 5 | 5 | 5 | 1 | 5 | 5 | 5 | 5 | 5 | 5 | – | –
C=CC(O)c1cc(-c2ccc(C(F)(F)F)n(C)c2=O)c(F)cc1Cl (centres unmarked) [Compound 1-197] | – | – | – | – | – | – | 1 | 5 | 5 | 5 | 1 | 5 | 5 | 5 | 5 | 5 | 5 | – | –
C#CC(O)c1cc(-c2ccc(C(F)(F)F)n(C)c2=O)c(F)cc1Cl (centres unmarked) [Compound 1-202] | – | – | – | – | – | – | – | 5 | 5 | 5 | – | 5 | 5 | 5 | 5 | 5 | 5 | 2 | 1
CSCOc1cc(-c2ccc(C(F)(F)F)n(C)c2=O)c(F)cc1Cl [Compound 1-208] | – | – | – | – | – | – | 2 | 5 | 5 | 5 | 1 | 5 | 5 | 5 | 5 | 5 | 5 | – | –
C=CCN1C(=O)COc2cc(F)c(-c3ccc(C(F)(F)F)n(C)c3=O)cc21 [Compound 2-7] | – | – | – | – | – | – | 0 | 5 | 5 | 5 | – | 5 | 5 | 5 | 5 | 5 | 5 | 0 | 0
C#CCN1C(=O)COc2cc(Cl)c(-c3ccc(C(F)(F)F)n(C)c3=O)cc21 [Compound 2-25] | – | – | – | – | – | – | 1 | 5 | 5 | 5 | 2 | 5 | 5 | 5 | 5 | 5 | 5 | 0 | 1
C=CCN1C(=O)COc2cc(Cl)c(-c3ccc(C(F)(F)F)n(C)c3=O)cc21 [Compound 2-26] | – | – | – | – | – | – | 1 | 5 | 5 | 5 | 1 | 5 | 5 | 5 | 5 | 5 | 5 | – | –
Cc1cc2c(-c3ccc(C(F)(F)F)n(C)c3=O)c(F)cc(Cl)c2o1 [Compound 4-1] | – | – | – | – | – | – | 2 | 5 | 5 | 5 | 2 | 5 | 5 | 5 | 5 | 5 | 5 | 1 | 1
